# Data published in PubChem BioAssay (NCI).
#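 GI50 marks 50% less growth. The concentration for full growth arrest is given as TGI.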
# Key:
# Assay in all cases: NCI-60 cell line screen, 384-well format
# U251 glioblastoma = tested on: U251 glioblastoma
# IGROV1 ovarian = tested on: IGROV1 ovarian
# DU-145 prostate = tested on: DU-145 prostate
# SN12C renal = tested on: SN12C renal
# SNB-19 CNS = tested on: SNB-19 CNS
# HOP-92 NSCLC = tested on: HOP-92 NSCLC
# HT29 colon = tested on: HT29 colon
# MDA-MB-231 breast = tested on: MDA-MB-231 breast
# TK-10 renal = tested on: TK-10 renal
# SNB-75 CNS = tested on: SNB-75 CNS
# MALME-3M melanoma = tested on: MALME-3M melanoma
# COLO 205 colon = tested on: COLO 205 colon
# MDA-MB-435 melanoma = tested on: MDA-MB-435 melanoma
# HCT-15 colon = tested on: HCT-15 colon
# BT-549 breast = tested on: BT-549 breast
# A498 renal = tested on: A498 renal
# SF-268 CNS = tested on: SF-268 CNS
# 786-0 renal = tested on: 786-0 renal
# MOLT-4 leukemia = tested on: MOLT-4 leukemia
# HS 578T breast = tested on: HS 578T breast
# OVCAR-3 ovarian = tested on: OVCAR-3 ovarian
# MDA-MB-468 breast = tested on: MDA-MB-468 breast
# KM12 colon = tested on: KM12 colon
# SK-MEL-28 melanoma = tested on: SK-MEL-28 melanoma
# A549 NSCLC = tested on: A549 NSCLC
# SK-MEL-5 melanoma = tested on: SK-MEL-5 melanoma
# CCRF-CEM leukemia = tested on: CCRF-CEM leukemia
# SW-620 colon = tested on: SW-620 colon
# OVCAR-4 ovarian = tested on: OVCAR-4 ovarian
# SK-OV-3 ovarian = tested on: SK-OV-3 ovarian
# UO-31 renal = tested on: UO-31 renal
# T-47D breast = tested on: T-47D breast
# NCI-H23 lung = tested on: NCI-H23 lung
# SR leukemia = tested on: SR leukemia
# HOP-62 NSCLC = tested on: HOP-62 NSCLC
# CAKI-1 renal = tested on: CAKI-1 renal
# RPMI-8226 leukemia = tested on: RPMI-8226 leukemia
# SF-295 CNS = tested on: SF-295 CNS
# NCI-H522 lung = tested on: NCI-H522 lung
# EKVX NSCLC = tested on: EKVX NSCLC
# PC-3 prostate = tested on: PC-3 prostate
# OVCAR-8 ovarian = tested on: OVCAR-8 ovarian
# MCF7 breast = tested on: MCF7 breast
# LOX IMVI melanoma = tested on: LOX IMVI melanoma
# NCI/ADR-RES ovarian = tested on: NCI/ADR-RES ovarian
# SF-539 CNS = tested on: SF-539 CNS
# NCI-H460 NSCLC = tested on: NCI-H460 NSCLC
# UACC-257 melanoma = tested on: UACC-257 melanoma
# NCI-H322M lung = tested on: NCI-H322M lung
# K-562 leukemia = tested on: K-562 leukemia
# M14 melanoma = tested on: M14 melanoma
# NCI-H226 lung = tested on: NCI-H226 lung
# HCT-116 colon = tested on: HCT-116 colon
# OVCAR-5 ovarian = tested on: OVCAR-5 ovarian
# HL-60(TB) leukemia = tested on: HL-60(TB) leukemia
# HCC-2998 colon = tested on: HCC-2998 colon
# ACHN renal = tested on: ACHN renal
# RXF 393 renal = tested on: RXF 393 renal
smiles,measurement,setting,value
CC[C@@]1(c2ccccc2)C2=C(CC(C)(C)CC2=O)Nc2[nH]ncc21,GI50,U251 glioblastoma,96.6 µM
same,TGI,U251 glioblastoma,> 100 µM
same,GI50,IGROV1 ovarian,> 100 µM
same,TGI,IGROV1 ovarian,> 100 µM
same,GI50,DU-145 prostate,> 100 µM
same,TGI,DU-145 prostate,> 100 µM
same,GI50,SN12C renal,> 100 µM
same,TGI,SN12C renal,> 100 µM
same,GI50,SNB-19 CNS,> 100 µM
same,TGI,SNB-19 CNS,> 100 µM
same,GI50,HOP-92 NSCLC,> 100 µM
same,TGI,HOP-92 NSCLC,> 100 µM
same,GI50,HT29 colon,> 100 µM
same,TGI,HT29 colon,> 100 µM
same,GI50,MDA-MB-231 breast,> 100 µM
same,TGI,MDA-MB-231 breast,> 100 µM
same,GI50,TK-10 renal,45.2 µM
same,TGI,TK-10 renal,> 100 µM
same,GI50,SNB-75 CNS,> 100 µM
same,TGI,SNB-75 CNS,> 100 µM
same,GI50,MALME-3M melanoma,> 100 µM
same,TGI,MALME-3M melanoma,> 100 µM
same,GI50,COLO 205 colon,> 100 µM
same,TGI,COLO 205 colon,> 100 µM
same,GI50,MDA-MB-435 melanoma,> 100 µM
same,TGI,MDA-MB-435 melanoma,> 100 µM
same,GI50,HCT-15 colon,60 µM
same,TGI,HCT-15 colon,> 100 µM
same,GI50,BT-549 breast,> 100 µM
same,TGI,BT-549 breast,> 100 µM
same,GI50,A498 renal,98.6 µM
same,TGI,A498 renal,> 100 µM
same,GI50,SF-268 CNS,> 100 µM
same,TGI,SF-268 CNS,> 100 µM
same,GI50,786-0 renal,> 100 µM
same,TGI,786-0 renal,> 100 µM
same,GI50,MOLT-4 leukemia,> 100 µM
same,TGI,MOLT-4 leukemia,> 100 µM
same,GI50,HS 578T breast,64.6 µM
same,TGI,HS 578T breast,> 100 µM
same,GI50,OVCAR-3 ovarian,> 100 µM
same,TGI,OVCAR-3 ovarian,> 100 µM
same,GI50,MDA-MB-468 breast,30.8 µM
same,TGI,MDA-MB-468 breast,> 100 µM
same,GI50,KM12 colon,> 100 µM
same,TGI,KM12 colon,> 100 µM
same,GI50,SK-MEL-28 melanoma,> 100 µM
same,TGI,SK-MEL-28 melanoma,> 100 µM
same,GI50,A549 NSCLC,> 100 µM
same,TGI,A549 NSCLC,> 100 µM
same,GI50,SK-MEL-5 melanoma,> 100 µM
same,TGI,SK-MEL-5 melanoma,> 100 µM
same,GI50,CCRF-CEM leukemia,> 100 µM
same,TGI,CCRF-CEM leukemia,> 100 µM
same,GI50,SW-620 colon,> 100 µM
same,TGI,SW-620 colon,> 100 µM
same,GI50,OVCAR-4 ovarian,> 100 µM
same,TGI,OVCAR-4 ovarian,> 100 µM
same,GI50,SK-OV-3 ovarian,> 100 µM
same,TGI,SK-OV-3 ovarian,> 100 µM
same,GI50,UO-31 renal,47.1 µM
same,TGI,UO-31 renal,> 100 µM
same,GI50,T-47D breast,> 100 µM
same,TGI,T-47D breast,> 100 µM
same,GI50,NCI-H23 lung,> 100 µM
same,TGI,NCI-H23 lung,> 100 µM
same,GI50,SR leukemia,38.8 µM
same,TGI,SR leukemia,> 100 µM
same,GI50,HOP-62 NSCLC,> 100 µM
same,TGI,HOP-62 NSCLC,> 100 µM
same,GI50,CAKI-1 renal,> 100 µM
same,TGI,CAKI-1 renal,> 100 µM
same,GI50,RPMI-8226 leukemia,54.7 µM
same,TGI,RPMI-8226 leukemia,> 100 µM
same,GI50,SF-295 CNS,50.9 µM
same,TGI,SF-295 CNS,> 100 µM
same,GI50,NCI-H522 lung,> 100 µM
same,TGI,NCI-H522 lung,> 100 µM
same,GI50,EKVX NSCLC,> 100 µM
same,TGI,EKVX NSCLC,> 100 µM
same,GI50,PC-3 prostate,> 100 µM
same,TGI,PC-3 prostate,> 100 µM
same,GI50,OVCAR-8 ovarian,> 100 µM
same,TGI,OVCAR-8 ovarian,> 100 µM
same,GI50,MCF7 breast,> 100 µM
same,TGI,MCF7 breast,> 100 µM
same,GI50,LOX IMVI melanoma,> 100 µM
same,TGI,LOX IMVI melanoma,> 100 µM
same,GI50,NCI/ADR-RES ovarian,> 100 µM
same,TGI,NCI/ADR-RES ovarian,> 100 µM
same,GI50,SF-539 CNS,> 100 µM
same,TGI,SF-539 CNS,> 100 µM
same,GI50,NCI-H460 NSCLC,35 µM
same,TGI,NCI-H460 NSCLC,> 100 µM
same,GI50,UACC-257 melanoma,> 100 µM
same,TGI,UACC-257 melanoma,> 100 µM
same,GI50,NCI-H322M lung,> 100 µM
same,TGI,NCI-H322M lung,> 100 µM
same,GI50,K-562 leukemia,> 100 µM
same,TGI,K-562 leukemia,> 100 µM
same,GI50,M14 melanoma,56.9 µM
same,TGI,M14 melanoma,> 100 µM
same,GI50,NCI-H226 lung,> 100 µM
same,TGI,NCI-H226 lung,> 100 µM
same,GI50,HCT-116 colon,66.9 µM
same,TGI,HCT-116 colon,> 100 µM
same,GI50,OVCAR-5 ovarian,> 100 µM
same,TGI,OVCAR-5 ovarian,> 100 µM
same,GI50,HL-60(TB) leukemia,46.3 µM
same,TGI,HL-60(TB) leukemia,> 100 µM
same,GI50,HCC-2998 colon,> 100 µM
same,TGI,HCC-2998 colon,> 100 µM
same,GI50,ACHN renal,> 100 µM
same,TGI,ACHN renal,> 100 µM
same,GI50,RXF 393 renal,66.3 µM
same,TGI,RXF 393 renal,> 100 µM
